Data: publication PMC4038709 (Bioorganic & medicinal chemistry, 2014)

Legend:
SET7 [1] = target: T1, SET7 (Homo sapiens, UniProt Q8WTS6); assay: SET7 ELISA methylation assay; format: biochemical; settings: for relative potency against SET7 (SAR, in words): comparison with parent analog, ELISA 40 µM (Fig. 3); for inhibition at 40 µM: read-out: inhibition of SET7
T1 sequence (Q8WTS6 52-366): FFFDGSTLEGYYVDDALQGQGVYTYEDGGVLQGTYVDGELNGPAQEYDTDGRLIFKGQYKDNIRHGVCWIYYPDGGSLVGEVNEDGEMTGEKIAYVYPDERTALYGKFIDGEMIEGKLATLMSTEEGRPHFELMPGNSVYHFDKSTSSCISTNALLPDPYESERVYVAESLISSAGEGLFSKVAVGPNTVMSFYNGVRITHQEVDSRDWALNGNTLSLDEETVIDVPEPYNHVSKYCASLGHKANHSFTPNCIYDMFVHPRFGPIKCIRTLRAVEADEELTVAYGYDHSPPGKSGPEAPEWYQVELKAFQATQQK

SET7 [2] = target: T1, SET7; assay: SET7 scintillation proximity assay; format: biochemical; settings: SPA, 50 µM and 15 µM inhibitor, comparison with 19 (Fig. 4)

## O=C(O)c1cccc(SCc2cccc(-n3ccc4cc(Br)ccc43)c2)c1 [Compound 11, 3-(3-(5-bromo-1H-indol-1-yl)benzylthio)benzoic acid]
SET7 [1]
  relative potency against SET7 (SAR, in words): more potent inhibitors of SET7 than 7

## O=C(O)CCCSCc1cccc(-n2ccc3cc(Br)ccc32)c1 [Compound 10, 4-(3-(5-bromo-1H-indol-1-yl)benzylthio)butanoic acid]
SET7 [1]
  relative potency against SET7 (SAR, in words): more potent inhibitors of SET7 than 7

## O=C(O)c1cccc(SCc2cccc(-n3ccc4c(-c5ccccc5)cccc43)c2)c1 [Compound 13, 3-(3-(4-phenyl-1H-indol-1-yl)benzylthio)benzoic acid]
SET7 [1]
  relative potency against SET7 (SAR, in words): even more effective
  inhibition at 40 µM: 50 to 60%

## O=C(O)c1cccc(SCc2cccc(-n3ccc4c(Br)cccc43)c2)c1 [Compound 12, 3-(3-(4-bromo-1H-indol-1-yl)benzylthio)benzoic acid]
SET7 [1]
  relative potency against SET7 (SAR, in words): increased potency

## O=C(O)c1ccc(-c2cccc3c2ccn3-c2cccc(CNc3cccc(C(=O)O)c3)c2)cc1 [Compound 15, 3-(3-(4-(4-carboxyphenyl)-1H-indol-1-yl)benzylamino)benzoic acid]
SET7 [1]
  relative potency against SET7 (SAR, in words): greatly suppressed activity

## O=C(O)c1cccc(NCc2ccc(-n3ccc4c(-c5ccc(C(F)(F)F)cc5)ncnc43)s2)c1 [Compound 26]
SET7 [2]
  relative potency against SET7 (SAR, in words): reduced inhibitor potency

## O=C(O)c1cccc(NCc2cccc(-n3ccc4c(-c5ccccc5)cccc43)c2)c1 [Compound 14, 3-(3-(4-phenyl-1H-indol-1-yl)benzylamino)benzoic acid]
SET7 [1]
  inhibition at 40 µM: 50 to 60%

## O=C(O)c1cccc(CNc2cccc(-n3ccc4c(-c5ccc(C(F)(F)F)cc5)ncnc43)c2)c1 [Compound 25]
SET7 [2]
  relative potency against SET7 (SAR, in words): reduced inhibitor potency
